Tests used:
Prothrombin = Prothrombin (Bos taurus, UniProt P00735); experiment: Binding affinity towards thrombin
Serine protease 1 = target: T1, Serine protease 1 (Bos taurus, UniProt P00760); experiment: Binding affinity towards trypsin
T1 sequence (P00760 whole entry): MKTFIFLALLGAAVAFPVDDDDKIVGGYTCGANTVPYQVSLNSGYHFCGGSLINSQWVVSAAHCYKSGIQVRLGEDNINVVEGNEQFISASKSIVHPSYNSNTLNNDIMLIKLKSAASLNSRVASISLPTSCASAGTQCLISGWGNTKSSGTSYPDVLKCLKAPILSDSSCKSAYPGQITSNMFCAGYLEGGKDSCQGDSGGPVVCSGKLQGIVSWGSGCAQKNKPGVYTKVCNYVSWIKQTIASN

Coagulation factor X = Coagulation factor X (Homo sapiens, UniProt P00742); experiment: Binding affinity towards Coagulation factor Xa
Chain of Coagulation factor X (P00742 41-179 limits assumed): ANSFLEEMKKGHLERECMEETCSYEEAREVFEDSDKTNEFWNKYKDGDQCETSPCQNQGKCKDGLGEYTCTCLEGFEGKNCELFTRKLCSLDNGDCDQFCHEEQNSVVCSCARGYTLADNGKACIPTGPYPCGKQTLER
Chain of Coagulation factor X (P00742 235-488 limits assumed): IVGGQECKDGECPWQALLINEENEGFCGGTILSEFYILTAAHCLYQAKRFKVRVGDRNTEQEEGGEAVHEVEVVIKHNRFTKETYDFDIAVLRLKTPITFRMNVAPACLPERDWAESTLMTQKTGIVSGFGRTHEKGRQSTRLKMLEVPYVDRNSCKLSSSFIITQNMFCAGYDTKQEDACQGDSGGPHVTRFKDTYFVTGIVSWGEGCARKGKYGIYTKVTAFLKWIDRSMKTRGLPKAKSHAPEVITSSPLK

Ki (Prothrombin)	Ki (Serine protease 1)	Ki (Coagulation factor X)	Compound
500 nM	220 nM	21 µM	N=C(N)c1cccc(C[C@H](NS(=O)(=O)c2ccc3ccccc3c2)C(=O)N2CCNCC2)c1
260 nM	310 nM	33.1 µM	CNC(=O)[C@H]1CCCN(C(=O)[C@H](Cc2cccc(C(=N)N)c2)NS(=O)(=O)c2ccc3ccccc3c2)C1
18000 nM	46000 nM	40 µM	CNC(=O)[C@H](Cc1cccc(C(=N)N)c1)NS(=O)(=O)c1ccc(C)cc1
300 nM	160 nM	8.59 µM	N=C(N)c1cccc(C[C@H](NS(=O)(=O)c2ccc3ccccc3c2)C(=O)N2CCC[C@H](C(=O)OCc3ccccc3)C2)c1
2100 nM	80 nM	7.6 µM	N=C(N)c1cccc(C[C@H](NS(=O)(=O)c2ccc3ccccc3c2)C(=O)N2CCC(C(=O)OC3CCCCC3)CC2)c1
180 nM	991 nM	83.2 µM	COC(=O)C1CCN(C(=O)[C@H](Cc2cccc(C(=N)N)c2)NS(=O)(=O)c2c(C)cc(C)cc2C)CC1
4.17 nM	170 nM	3.89 µM	CN(C)c1cccc2c(S(=O)(=O)N[C@@H](Cc3cccc(C(=N)N)c3)C(=O)N3CCN(S(C)(=O)=O)CC3)cccc12
710 nM	23 nM	25.1 µM	CC(C)OC(=O)C1CCN(C(=O)[C@H](Cc2cccc(C(=N)N)c2)NS(=O)(=O)c2ccc3ccccc3c2)CC1
520 nM	1800 nM	36 µM	COC(=O)[C@H]1[C@@H](C)CCCN1C(=O)[C@H](Cc1cccc(C(=N)N)c1)NS(=O)(=O)c1ccc2ccccc2c1
170 nM	710 nM	52 µM	Cc1ccc(S(=O)(=O)N[C@@H](Cc2cccc(C(=N)N)c2)C(=O)N2CCOCC2)cc1
210 nM	67 nM	8.09 µM	N=C(N)c1cccc(C[C@H](NS(=O)(=O)c2ccc3ccccc3c2)C(=O)N2CCC(C(=O)OCc3ccccc3)CC2)c1
420 nM	2100 nM	3.2 µM	COC(=O)[C@H]1CCC[C@H](C)N1C(=O)[C@H](Cc1cccc(C(=N)N)c1)NS(=O)(=O)c1ccc2ccccc2c1
120 nM	4000 nM	46.8 µM	CCCCNC(=O)[C@H](Cc1cccc(C(=N)N)c1)NS(=O)(=O)c1ccc2ccccc2c1

Continued, compound first:

Compound	Ki (Prothrombin)	Ki (Serine protease 1)	Ki (Coagulation factor X)
N=C(N)c1cccc(C[C@H](NS(=O)(=O)c2ccc3ccccc3c2)C(=O)N2Cc3ccccc3C[C@@H]2C(=O)O)c1	18 nM	130 nM	41.5 µM
N=C(N)c1cccc(C[C@H](NS(=O)(=O)c2ccc3ccccc3c2)C(=O)N2Cc3ccccc3C=C2C(=O)O)c1	120 nM	4500 nM	54 µM
N=C(N)c1cccc(C[C@H](NS(=O)(=O)c2ccc3ccccc3c2)C(=O)N2CCC[C@H](C(=O)O)C2)c1	1100 nM	437 nM	[…]
Cc1c(C)c(S(=O)(=O)N[C@@H](Cc2cccc(C(=N)N)c2)C(=O)N2CCN(S(C)(=O)=O)CC2)c(C)c2c1OC(C)(C)CC2	7.41 nM	760 nM	74.1 µM
Cc1ccc(S(=O)(=O)N[C@@H](Cc2cccc(C(=N)N)c2)C(=O)N2CCC(C)CC2)cc1	26 nM	520 nM	71 µM
N=C(N)c1cccc(C[C@H](NS(=O)(=O)c2ccc3ccccc3c2)C(=O)N2CCOCC2)c1	42 nM	210 nM	16 µM
CNC(=O)[C@H](Cc1cccc(C(=N)N)c1)NS(=O)(=O)c1c(C(C)C)cc(C(C)C)cc1C(C)C	3800 nM	26000 nM	11 µM
N=C(N)c1cccc(C[C@H](NS(=O)(=O)c2ccc3ccccc3c2)C(=O)OCc2ccccc2)c1	42 nM	520 nM	2.2 µM
N=C(N)c1cccc(C[C@H](NS(=O)(=O)c2ccc3ccccc3c2)C(=O)N2CCCCCCC2)c1	30 nM	610 nM	22 µM
CN1CCN(C(=O)[C@H](Cc2cccc(C(=N)N)c2)NS(=O)(=O)c2ccc3ccccc3c2)CC1	36 nM	1300 nM	30 µM
CNC(=O)[C@H]1CCCN(C(=O)[C@H](Cc2cccc(C(=N)N)c2)NS(=O)(=O)c2c(C(C)C)cc(C(C)C)cc2C(C)C)C1	230 nM	794 nM	1.51 µM
COC(=O)C1CCN(C(=O)[C@H](Cc2cccc(C(=N)N)c2)NS(=O)(=O)c2ccc3ccccc3c2)CC1	17 nM	36 nM	42.7 µM
CC(C)c1cc(C(C)C)c(S(=O)(=O)N[C@@H](Cc2cccc(C(=N)N)c2)C(=O)N2CCN(S(C)(=O)=O)CC2)c(C(C)C)c1	280 nM	979 nM	7.4 µM
CC1CCN(C(=O)[C@H](Cc2cccc(C(=N)N)c2)NS(=O)(=O)C[C@]23CC[C@H](CC2=O)C3(C)C)CC1	14.1 nM	631 nM	14.1 µM
COC(=O)[C@H]1C[C@H](C)CCN1C(=O)[C@H](Cc1cccc(C(=N)N)c1)NS(=O)(=O)c1ccc2ccccc2c1	95.9 nM	2200 nM	[…]
CC1CCN(C(=O)[C@H](Cc2cccc(C(=N)N)c2)NS(=O)(=O)c2cccc3ccccc23)CC1	16 nM	631 nM	42 µM
N=C(N)c1cccc(C[C@H](NS(=O)(=O)c2ccc3ccccc3c2)C(=O)N2Cc3ccccc3C[C@@H]2C(=O)OCc2ccccc2)c1	690 nM	1200 nM	7.76 µM
COc1cc(C)c(S(=O)(=O)N[C@@H](Cc2cccc(C(=N)N)c2)C(=O)N2CCN(S(C)(=O)=O)CC2)c(C)c1C	32 nM	1800 nM	120 µM

Reference: ChEMBL document CHEMBL1132189, “Three-dimensional quantitative structure-activity relationship analyses using comparative molecular field analysis and comparative molecular similarity indices analysis to elucidate selectivity differences of inhibitors binding to trypsin, thrombin, and factor Xa” (J Med Chem, 1999)
